From ChEMBL document CHEMBL1833882, “Preparation and antibacterial evaluation of decarboxylated fluoroquinolones” (2011)
Converted amounts (≈) assume the structure as drawn.

Experiments:
Assay type in all cases: functional
Bacillus subtilis = assay: Antibacterial activity against Bacillus subtilis BD54 after 18 hrs by broth dilution method; details: BD54, 18 h
[1] = tested on: Stenotrophomonas maltophilia; assay: Antibacterial activity against Stenotrophomonas maltophilia ATCC 13637 after 18 hrs by broth dilution method; details: ATCC 13637, 18 h
Staphylococcus aureus [2] = assay: Antibacterial activity against methicillin-resistant Staphylococcus aureus 1094 after 18 hrs by broth dilution method; details: Staphylococcus aureus, 1094, 18 h
Acinetobacter baumannii = assay: Antibacterial activity against Acinetobacter baumannii ATCC 19606 after 18 hrs by broth dilution method; details: ATCC 19606 = CIP 70.34 = JCM 6841, 18 h
Enterococcus faecalis [3] = assay: Antibacterial activity against Enterococcus faecalis ATCC 29212 after 18 hrs by broth dilution method; details: ATCC 29212, 18 h
Staphylococcus aureus [4] = assay: Antibacterial activity against Staphylococcus aureus ATCC 25923 after 18 hrs by broth dilution method; details: ATCC 25923, 18 h
Klebsiella pneumoniae [5] = assay: Antibacterial activity against Klebsiella pneumoniae ATCC 700603 after 18 hrs by broth dilution method; details: ATCC 700603, 18 h
Escherichia coli [6] = assay: Antibacterial activity against Escherichia coli ATCC 29425 after 18 hrs by broth dilution method; details: ATCC 29425, 18 h
Pseudomonas aeruginosa [7] = assay: Antibacterial activity against Pseudomonas aeruginosa PAO1 harboring oprM deltamexAB after 18 hrs by broth dilution method; details: PAO1, 18 h
Escherichia coli [8] = assay: Antibacterial activity against TolC deficient Escherichia coli 701 after 18 hrs by broth dilution method; details: Escherichia coli, 701, 18 h
Bacillus anthracis = assay: Antibacterial activity against Bacillus anthracis Sterne after 18 hrs by broth dilution method
Burkholderia cepacia [9] = assay: Antibacterial activity against Burkholderia cepacia ATCC 55792 after 18 hrs by broth dilution method; details: ATCC 55792, 18 h
Enterococcus faecalis [10] = assay: Antibacterial activity against Enterococcus faecalis ATCC 29212 after 16 to 18 hrs by agar dilution method
Klebsiella pneumoniae [11] = assay: Antibacterial activity against Klebsiella pneumoniae ATCC 13882 after 18 hrs by broth dilution method; details: ATCC 13882, 18 h
Burkholderia cepacia [12] = assay: Antibacterial activity against Burkholderia cepacia ATCC 39277 after 18 hrs by broth dilution method; details: ATCC 39277, 18 h
Staphylococcus aureus [13] = assay: Antibacterial activity against Staphylococcus aureus ATCC 25923 after 16 to 18 hrs by agar dilution method
Pseudomonas aeruginosa [14] = assay: Antibacterial activity against Pseudomonas aeruginosa PAO1 ATCC BAA-47 after 18 hrs by broth dilution method; details: PAO1 ATCC BAA-47, 18 h
Escherichia coli [15] = assay: Antibacterial activity against Escherichia coli 700 expressing TolC after 18 hrs by broth dilution method; details: Escherichia coli, 700, 18 h
Escherichia coli [16] = assay: Antibacterial activity against Escherichia coli ATCC 29425 after 16 to 18 hrs by agar dilution method
Enterococcus faecalis [17] = assay: Antibacterial activity against vancomycin-resistant Enterococcus faecalis ATCC 51575 after 18 hrs by broth dilution method; details: ATCC 51575, 18 h

SMILES | MIC (Bacillus subtilis) | MIC [1] | MIC (Staphylococcus aureus [2]) | MIC (Acinetobacter baumannii) | MIC (Enterococcus faecalis [3]) | MIC (Staphylococcus aureus [4]) | MIC (Klebsiella pneumoniae [5]) | MIC (Escherichia coli [6]) | MIC (Pseudomonas aeruginosa [7]) | MIC (Escherichia coli [8]) | MIC (Bacillus anthracis) | MIC (Burkholderia cepacia [9]) | MIC (Enterococcus faecalis [10]) | MIC (Klebsiella pneumoniae [11]) | MIC (Burkholderia cepacia [12]) | MIC (Staphylococcus aureus [13]) | MIC (Pseudomonas aeruginosa [14]) | MIC (Escherichia coli [15]) | MIC (Escherichia coli [16]) | MIC (Enterococcus faecalis [17])
CCN1CCN(c2cc3c(cc2F)c(=O)ccn3C2CC2)CC1 | > 80 µg/mL | > 80 µg/mL | > 80 µg/mL | > 80 µg/mL | > 80 µg/mL | > 80 µg/mL | > 80 µg/mL | > 80 µg/mL | > 80 µg/mL | > 80 µg/mL | > 80 µg/mL | > 80 µg/mL | > 64 µg/mL | > 80 µg/mL | > 80 µg/mL | > 64 µg/mL | > 80 µg/mL | > 80 µg/mL | > 64 µg/mL | > 80 µg/mL
CCn1ccc(=O)c2cc(F)c(N3CCN(C=O)CC3)cc21 | > 80 µg/mL | > 80 µg/mL | > 80 µg/mL | > 80 µg/mL | > 80 µg/mL | > 80 µg/mL | > 80 µg/mL | 40 µg/mL (≈ 132 µM) | 80 µg/mL (≈ 264 µM) | 40 µg/mL (≈ 132 µM) | > 80 µg/mL | > 80 µg/mL | > 64 µg/mL | > 80 µg/mL | > 80 µg/mL | > 64 µg/mL | > 80 µg/mL | 40 µg/mL (≈ 132 µM) | > 64 µg/mL | > 80 µg/mL
CC1CN(c2c(F)cc3c(=O)ccn(C4CC4)c3c2F)CCN1 (stereo not drawn) | > 80 µg/mL | > 80 µg/mL | > 80 µg/mL | > 80 µg/mL | > 80 µg/mL | > 80 µg/mL | > 80 µg/mL | > 80 µg/mL | 40 µg/mL (≈ 125 µM) | 15 µg/mL (≈ 47 µM) | 80 µg/mL (≈ 251 µM) | > 80 µg/mL | > 64 µg/mL | > 80 µg/mL | > 80 µg/mL | > 64 µg/mL | > 80 µg/mL | > 80 µg/mL | > 64 µg/mL | > 80 µg/mL
CC1CN(c2c(F)cc3c(=O)c(C(=O)O)cn(C4CC4)c3c2F)CCN1 (stereo not drawn) | 0.078 µg/mL (≈ 0.215 µM) | 0.039 µg/mL (≈ 0.107 µM) | 10 µg/mL (≈ 27.5 µM) | 0.313 µg/mL (≈ 0.861 µM) | 0.625 µg/mL (≈ 1.72 µM) | 0.235 µg/mL (≈ 0.647 µM) | 0.313 µg/mL (≈ 0.861 µM) |  | 0.039 µg/mL (≈ 0.107 µM) | ≤ 0.02 µg/mL | 0.078 µg/mL (≈ 0.215 µM) | 0.235 µg/mL (≈ 0.647 µM) |  | ≤ 0.02 µg/mL | 0.078 µg/mL (≈ 0.215 µM) |  | 1.25 µg/mL (≈ 3.44 µM) | ≤ 0.02 µg/mL |  | 0.625 µg/mL (≈ 1.72 µM)
O=CN1CCN(c2cc3c(cc2F)c(=O)ccn3C2CC2)CC1 | > 80 µg/mL | > 80 µg/mL | > 80 µg/mL | > 80 µg/mL | > 80 µg/mL | > 80 µg/mL | > 80 µg/mL | > 80 µg/mL | > 80 µg/mL | > 80 µg/mL | > 80 µg/mL | > 80 µg/mL | > 64 µg/mL | > 80 µg/mL | > 80 µg/mL | > 64 µg/mL | > 80 µg/mL | > 80 µg/mL | > 64 µg/mL | > 80 µg/mL
O=C(O)c1cn(C2CC2)c2cc(N3CCNCC3)c(F)cc2c1=O [CIPROFLOXACIN] | 0.156 µg/mL (≈ 0.471 µM) | 0.156 µg/mL (≈ 0.471 µM) | 20 µg/mL (≈ 60.4 µM) | 1.25 µg/mL (≈ 3.77 µM) | 1.25 µg/mL (≈ 3.77 µM) | 0.625 µg/mL (≈ 1.89 µM) | 0.313 µg/mL (≈ 0.945 µM) | < 0.02 µg/mL | 0.02 µg/mL (≈ 0.0604 µM) |  |  | 0.625 µg/mL (≈ 1.89 µM) | 0.5 µg/mL (≈ 1.51 µM) | 0.039 µg/mL (≈ 0.118 µM) | 0.078 µg/mL (≈ 0.235 µM) | 0.5 µg/mL (≈ 1.51 µM) | 0.313 µg/mL (≈ 0.945 µM) |  | < 0.06 µg/mL | 0.625 µg/mL (≈ 1.89 µM)
